Experimental data taken from publication PMC9105976, “A Novel β-Hairpin Peptide Z-d14CFR Enhances Multidrug-Resistant Bacterial Clearance in a Murine Model of Mastitis” (International Journal of Molecular Sciences, 2022).
Marks after values point to notes of the source that are not given here. No end group written: not given here.

How the values were obtained:
[1] = test system: Escherichia coli CAU 201919; test: MIC/MBC, microdilution broth method; assay type: cell-based; settings: Escherichia coli CAU 201919 (MDR isolate)
Method in brief: (§1)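 Equal volumes of cell suspension and compound solution are mixed; compounds (peptides, ampicillin, gentamicin) are supplied at 0.001 to 2 mg/mL prior to dilution, and cells at 1 × 10^6 CFU/mL in 10 mM PBS, derived from cultures at OD600 0.6.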

[2] = test system: Salmonella typhimurium ATCC14028; test: MIC/MBC, microdilution broth method; assay type: cell-based; settings: Salmonella typhimurium ATCC14028
Method in brief: as §1

[3] = test system: Escherichia coli CVCC1450; test: MIC/MBC, microdilution broth method; assay type: cell-based; settings: Escherichia coli CVCC1450
Method in brief: as §1

[4] = test system: Proteus vulgaris CVCC1971; test: MIC/MBC, microdilution broth method; assay type: cell-based; settings: Proteus vulgaris CVCC1971
Method in brief: as §1

[5] = test system: Escherichia coli ATCC25922; test: MIC/MBC, microdilution broth method; assay type: cell-based; settings: Escherichia coli ATCC25922
Method in brief: as §1

[6] = test system: Staphylococcus haemolyticus CAU202078; test: MIC/MBC, microdilution broth method; assay type: cell-based; settings: Staphylococcus haemolyticus CAU202078 (MDR isolate)
Method in brief: as §1

[7] = test system: Staphylococcus aureus ATCC29213; test: MIC/MBC, microdilution broth method; assay type: cell-based; settings: Staphylococcus aureus ATCC29213
Method in brief: as §1

[8] = test system: Bacillus cereus CAU 202020; test: MIC/MBC, microdilution broth method; assay type: cell-based; settings: Bacillus cereus CAU 202020 (MDR isolate)
Method in brief: as §1

[9] = test system: Klebsiella pneumoniae CAU202084; test: MIC/MBC, microdilution broth method; assay type: cell-based; settings: Klebsiella pneumoniae CAU202084 (MDR isolate)
Method in brief: as §1

[10] = test system: Streptococcus suis CVCC3307; test: MIC/MBC, microdilution broth method; assay type: cell-based; settings: Streptococcus suis CVCC3307
Method in brief: as §1

[11] = test system: Escherichia coli CAU 201920; test: MIC/MBC, microdilution broth method; assay type: cell-based; settings: Escherichia coli CAU 201920 (MDR isolate)
Method in brief: as §1

MRSA ATCC33591 = test: MIC/MBC, microdilution broth method; assay type: cell-based, S. aureus
Method in brief: as §1

[12] = test system: Gram-positive and Gram-negative bacteria; test: Antimicrobial activity, statements over the bacterial panel; assay type: cell-based; settings: data not shown
Procedure: The MIC of peptides against bacteria was carried out by the microdilution broth method. The bacterial culture (OD 600 = 0.6) was diluted in 10 mM PBS to 1 × 10^6 CFU/mL. […]

[13] = Retention time of peptide in HPLC (hydrophobicity); assay type: physicochemical; settings: used as measure of hydrophobicity (order Z-d14CR > Z-d14CF > Z-d13 > Z-d14CFR > Z-d14C); column and gradient not given
[14] = 1 × 10^6 CFU/mL, 18 h at 37 °C, NA = no antimicrobial activity at 1 mg/mL
[15] = kills 99.9% bacteria, NA = no activity at 1 mg/mL
[16] = minimum concentration which kills 99.9% bacteria, NA = no activity at 1 mg/mL

With “GGYCNSKSVCVCR-NH2 (disulfide (positions not given here)) [Z-d13, Z. atratus defensin β-sheet region analogue, …-NH2]” the MIC [1, 14] was “NA (NA) (No antimicrobial activity at 1 mg/mL)”, the MBC [1, 15] was “NA (NA) (No antimicrobial activity at 1 mg/mL)” and the MIC [2, 14] was “NA (NA) (No antimicrobial activity at 1 mg/mL)”. The MBC [2, 15] was “NA (NA) (No antimicrobial activity at 1 mg/mL)”, the MIC [3, 14] was “NA (NA) (No antimicrobial activity at 1 mg/mL)” and the MBC [3, 16] was “NA (NA) (No antimicrobial activity at 1 mg/mL)”. The MIC [4, 14] was “NA (NA) (No antimicrobial activity at 1 mg/mL)”, the MBC [4, 15] was “NA (NA) (No antimicrobial activity at 1 mg/mL)” and the MIC [5, 14] was “NA (NA) ^c (No antimicrobial activity at 1 mg/mL)”. The MBC [5, 16] was “NA (NA) ^c (No antimicrobial activity at 1 mg/mL)”, the MIC [6, 14] was “NA (NA) (No antimicrobial activity at 1 mg/mL)” and the MBC [6, 15] was “NA (NA) (No antimicrobial activity at 1 mg/mL)”. The MIC [7, 14] was “NA (NA) (No antimicrobial activity at 1 mg/mL)”, the MBC [7, 15] was “NA (NA) (No antimicrobial activity at 1 mg/mL)” and the MIC [8, 14] was “NA (NA) (No antimicrobial activity at 1 mg/mL)”. For the same substance, the MBC [8, 15] was “NA (NA) (No antimicrobial activity at 1 mg/mL)”, the MIC [9, 14] was “NA (NA) (No antimicrobial activity at 1 mg/mL)” and the MBC [9, 15] was “NA (NA) (No antimicrobial activity at 1 mg/mL)”. The MIC [10, 14] was “NA (NA) (No antimicrobial activity at 1 mg/mL)”, the MBC [10, 15] was “NA (NA) (No antimicrobial activity at 1 mg/mL)” and the MIC [11, 14] was “NA (NA) (No antimicrobial activity at 1 mg/mL)”. The MBC [11, 15] was “NA (NA) (No antimicrobial activity at 1 mg/mL)”, the MIC (MRSA ATCC33591; MRSA (methicillin-resistant S. aureus) ATCC33591, 1 × 10^6 CFU/mL, 18 h at 37 °C, NA = no antimicrobial activity at 1 mg/mL) was “NA (NA) (No antimicrobial activity at 1 mg/mL)” and the MBC (MRSA ATCC33591; MRSA ATCC33591, kills 99.9% bacteria, NA = no activity at 1 mg/mL) was “NA (NA) (No antimicrobial activity at 1 mg/mL)”. The “activity against bacteria at 3 mg/mL” value [12] was “slight activity” and the “RT, retention time of peptide in HPLC” value [13] was 9.077 min.
